System: spike mutant (ΔS) SARS-CoV-2 strain (EPI_ISL_578177)
Format: cell-based

CC(=O)N[C@@H](CS)C(=O)O [Acetylcysteine, acetylcysteine]
viral inhibition (CPE, optical and Neutral Red cell staining): no viral inhibition
